US20170000784A1, “Autophagy Inhibitors” (priority 2013, published 2017)
Entries after “also recorded” stand apart in the source; their conditions may differ.

Key:
[1] = test system: lysosomes (LAMP1, LysoTracker Red) in U2OS cells; test: Lysosome analysis by fluorescent microscopy (LAMP1 / LysoTracker Red); type: cell-based; details: 3 μM for 3 hours; for LysoTracker Red staining: LysoTracker Red for the final hour
Method: To determine deacidification of the lysosome, cells were incubated with LysoTracker Red, a dye that localizes to the lysosome based on the […] of the compartment. If the lysosome is no longer acidic, there is a loss in the amount of LysoTracker Red staining. Lysosomal inhibition was further determined by immunofluorescence of lysosome-associated membrane protein-1 (LAMP1). If the lysosome is inhibited, lysosomal turnover should decrease and an increase in the amount of LAMP1 staining would be apparent. U2OS cells were treated with Example 7 or Example 26 at 3 μM for 3 hours, supplementing LysoTracker Red for the final hour.
Using image analysis software, the mean intensities of both the LAMP1 and LysoTracker Red staining were measured and represent altered intensity level between treatments on intensity plots. Individual points were measured using a line scan on the image analysis software, which measures the intensity across the path of a line at any given point. Not only does the presence of LAMP1 positive membranes increases, but the intensity in LAMP1 staining also increases with Example 7 and Example 26 treatment. The inverse relationship in intensity holds true for LysoTracker Red staining.
U2OS cells were seeded at 5×10^4 cells per well in 5A McCoy's with 10% FBS on number 1.5 coverglass discs in 24-well tissue culture dishes. After 24 hours, cells were treated with 3 μM CQ, QN, VATG-027, or VATG-032 for three hours. An hour prior to fixation, media was supplemented with LysoTracker Red added at 100 nM (Invitrogen, L7528). Cells were washed with 1×PBS, fixed with 3.7% formaldehyde, permeabilized with 0.2% Triton-X 100, and blocked with 3% bovine serum albumin (BSA) in PBS. LAMP1 antibody (Santa Cruz, sc-18821) was added at 1:1000 for 16 hours at 4° C. followed by Alexa-Fluor-488-conjugated anti-mouse IgG (Invitrogen, A11008) 1:5000 for 1 hour at room temperature. Nuclei were stained with Hoechst 33342 (2 μg/mL). Coverglass discs were inverted onto a microscope slide using mounting gel. The microscope slides were imaged using a 60× oil-immersion objective on a Nikon Eclipse Ti fluorescent microscope. Intensity of the red and green channels were visualized using the intensity plot on the Nikon NIS Elements software (FIG. 13B). […] The RGB threshold of only the color […] indicating both LAMP1 and LysoTracker Red positivity was performed and data for analysis. The Mander's co-localization coefficient was produced from the Nikon NIS Elements software.
Next, the inventors sought to confirm the inhibition of lysosomal turnover induced by the compounds of the present invention, for example, those of Formula III, Formula III(a), Formula V, Formula V(a), Formula A, Formula A^1, Formula A^2, Formula A^3, or a pharmaceutically acceptable salt thereof, by evaluating the abundance of endogenous lysosomal protein, LAMP1. In addition, lysosome acidity was assessed by co-staining cells with LysoTracker Red, a dye that localizes to the lysosome based on the low pH. Cells were treated with 3 μM CQ, QN, Example 7, or Example 27 for 3 hours, with LysoTracker Red supplemented for the final hour. Following, cells were fixed and stained with endogenous LAMP1 antibodies and both LAMP1 and LysoTracker Red imaged. […] To quantify this phenotype, the co-localization of LAMP1 and LysoTracker Red was measured using image analysis software. […] In addition, Mander's colocalization coefficient (MCC) values were determined for each treatment (FIG. 13C). Not only does the presence of LAMP1-positive membranes increase, but the intensity of LAMP1 staining also increases with QN, Example 7, and Example 27 treatment (FIG. 13C).

U2OS cells = test: Transmission electron microscopy of lysosomal vesicles; type: cell-based; details: 3 μM for 3 hours, FIG. 12B
Method: U2OS cells were seeded in 10 cm plates in 5A McCoy's with 10% FBS at 1×10^6 cells per plate. After 24 hours incubation, cells were treated with DMSO (vehicle control), CQ (3 or 100 μM), quinicrine (3 μM), VATG-027 (3 μM), or VATG-032 (3 μM) for three hours. Following, cells were trypsinized, washed, pelleted, and resuspended in 2% glutaraldehyde fixative (Sigma, G5882). Cell pellets were embedded in 2% agarose, post-fixed in osmium tetroxide, and dehydrated with an acetone series. Cell samples were infiltrated and embedded in Poly/Bed 812 resin and polymerized at 60° C. for 24 hours. Ultrathin sections of 70 nm were generated with a Power Tome XL (Boeckeler Instruments) and placed on copper grids. Sections were examined using a JEOL 100Cx Transmission Electron Microscope at 100 kV. Lysosomal structures were identified by a single membrane structure lacking cytosolic components (FIG. 12). Transmission electron microscopy services were performed by Michigan State University Center for Advanced Microscopy (East Lansing, Mich.).
To test the theory, lysosomal turnover was first evaluated by visualizing lysosomes using transmission electron microscopy (TEM). U2OS cells were initially treated with a CQ concentration above the effective dose (100 μM) for 3 hours as a positive control, and were then subsequently fixed and imaged. […] Once this phenotype was established, cells were treated with a lower concentration (3 μM) of CQ to compare each compound at the same concentration.

SMILES	LAMP1 staining [1]	LysoTracker Red staining [1]	electron-opaque structures, consistent with lipid droplets (TEM) (U2OS cells)	size and number of electron-lucent and electron-dense vesicles (TEM) (U2OS cells)
COc1ccc2nc3cc(Cl)ccc3c(NCCCCN3CCN(C)CC3)c2c1 [Example 7, 6-Chloro-2-methoxy-N-(4-(4-methylpiperazin-1-yl)butyl)acridin-9-amine]	substantial increases	essentially ablated; also recorded: less intense; also recorded: essentially eliminated	appearance of several electron-opaque structures	increase in both the size and number
CN1CCN(CCNc2c3c(nc4cc(Cl)ccc24)CCCC3)CC1 [Example 27, 6-Chloro-N-(2-(4-methylpiperazin-1-yl)ethyl)-1,2,3,4-tetrahydroacridin-9-amine]	substantial increases	essentially ablated; also recorded: essentially eliminated	appearance of several electron-opaque structures	increase in both the size and number
CCN(CC)CCCC(C)Nc1c2ccc(Cl)cc2nc2ccc(OC)cc12 (centres unmarked) [Quinacrine, quinacrine, reference compound]	substantial increases	essentially eliminated	–	increase in both the size and number
